US20240132514A1, “PYRIDINE DERIVATIVES AS MODULATORS OF SORTILIN ACTIVITY” (Insusense ApS, priority 2021, published 2024)
pKi: −log10 of the molar value. Where two headings read alike, the source gives them in different places.

Target: human full length sortilin (Homo sapiens (Human), UniProt Q99523)
Test: Human sortilin neurotensin scintillation proximity (SPA) binding assay
Conditions: for IC50: 150 nM His-tagged human full length sortilin, SPA
Experimental: NTS, which is a 13 amino acid neuropeptide, is a sortilin ligand. The IC50 is a measure of the amount of the compound required to inhibit the binding of NTS to sortilin by 50%. The skilled person will recognise that the lower the IC50 value, the less of the compound needed to achieve the desired effect, and as a result, the chances of undesirable off-target effects are reduced.
The compound affinity was determined by measuring the inhibition of ^3H-neurotensin and/or ^125I-neurotensin binding to human full length sortilin using a Scintillation Proximity Assay (SPA) format.
The human sortilin SPA binding assay was performed in a total volume of 40 μl in 50 mM HEPES pH 7.4 assay buffer containing 100 mM NaCl, 2.0 mM CaCl2, 0.1% (v:v) BSA and 0.1% (v:v)Tween-20. Varying concentration of test compounds where pre-incubated for 30 min at RT with 150 nM of c-terminal hexahistidine- human full length Sortilin (RD Systems). […] 0.1 mg PVT copper HIS-tag imaging beads (Perkin Elmer) was added and the plate was agitated at 400 rpm in the dark for 1 hr. The SPA beads were allowed a minimum 2 hours settling time before the plate was read on a Hidex Sense 425-301 scintillation reader with a 45 sec exposure time. Concentration-response evaluation of test compounds was performed with 8 different concentrations of compound (covering 3 decades). […] The compound potency results were converted to inhibition constant Ki values (nM) derived from calculated IC50 values converted to Ki values using the Cheng-Prusoff equation (Ki=IC50/(I+(L/Kd))).

[1] = 5 nM [3H]-Neurotensin radioligand, read-out: hSortilin NTS Binding IC50 (nM) [3H] neurotensin

Chain of human full length sortilin (Q99523 78-755): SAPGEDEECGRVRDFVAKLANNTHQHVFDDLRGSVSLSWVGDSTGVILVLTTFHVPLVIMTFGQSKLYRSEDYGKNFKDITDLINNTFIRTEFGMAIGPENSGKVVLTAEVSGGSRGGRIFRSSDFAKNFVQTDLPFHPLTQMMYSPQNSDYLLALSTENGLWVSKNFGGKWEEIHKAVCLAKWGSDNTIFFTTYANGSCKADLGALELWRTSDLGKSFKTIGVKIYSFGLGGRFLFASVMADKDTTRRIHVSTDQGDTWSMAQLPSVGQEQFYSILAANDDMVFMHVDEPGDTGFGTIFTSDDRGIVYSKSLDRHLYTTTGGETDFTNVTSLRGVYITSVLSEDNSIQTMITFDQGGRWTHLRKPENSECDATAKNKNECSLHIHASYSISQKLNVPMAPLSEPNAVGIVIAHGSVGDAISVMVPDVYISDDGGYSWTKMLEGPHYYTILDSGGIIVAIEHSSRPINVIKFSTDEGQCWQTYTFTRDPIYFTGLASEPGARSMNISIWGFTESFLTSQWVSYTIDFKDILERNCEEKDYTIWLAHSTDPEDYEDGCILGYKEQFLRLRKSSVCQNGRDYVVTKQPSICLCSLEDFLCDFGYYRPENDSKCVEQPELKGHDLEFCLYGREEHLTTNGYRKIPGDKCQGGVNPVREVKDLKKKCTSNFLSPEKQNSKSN

IC50 [1] [nM]	IC50 (0.35 nM [125I]-Neurotensin radioligand, read-out: hSortilin NTS binding IC50 (nM) [125I] neurotensin) [nM]	pKi (derived from IC50 using the Cheng-Prusoff equation, Kd of neurotensin […], read-out: hSortilin Ki)	SMILES
725			COCc1cccc(NC(=O)c2ccc(C(F)(F)F)cc2C(=O)O)n1 [Example 24, 2-{[6-(methoxymethyl)pyridin-2-yl]carbamoyl}-5-(trifluoromethyl)benzoic acid]
60	105		O=C(O)c1cc(C(F)(F)F)ccc1C(=O)Nc1ccc2c(n1)COCC2 [Example 2, 2-({5H,6H,8H-pyrano[3,4-b]pyridin-2-yl}carbamoyl)-5-(trifluoromethyl)benzoic acid]
340		6.47	O=C(O)c1cc(C(F)(F)F)ccc1C(=O)Nc1cccc(CO)n1 [Example 3, 2-{[6-(hydroxymethyl)pyridin-2-yl]carbamoyl}-5-(trifluoromethyl)benzoic acid]
